Measured values published in US8507509B2, “Saturated and insaturated bi- or tricyclic aryloxyacetamine derivatives and their use as fungicides” (Syngenta Crop Protection LLC, priority 2007, dated 2013).

How the values were obtained:
Septoria nodorum = Septoria nodorum (wheat glume blotch), wheat leaf segment assay, preventive; format: in vivo; settings: Parastagonospora nodorum, foliar, 96 h; 200 ppm; wheat leaf segments; assessed four days after inoculation; read-out: control of fungal infection, Septoria nodorum
Botrytis cinerea = Botrytis cinerea (grey mould), bean leaf disk assay, preventive; format: in vivo; settings: foliar, 96 h, 200 ppm, bean leaf disks, assessed four days after inoculation, read-out: control of fungal infection, Botrytis cinerea
Plasmopara viticola = Plasmopara viticola (downy mildew of grapevine), grapevine leaf disk assay, preventive; format: in vivo; settings: foliar, 168 h, 200 ppm, grapevine leaf disks, assessed seven days after inoculation, read-out: control of fungal infection, Plasmopara viticola
Phytophthora infestans = experiment: whole plant or invertebrate; format: in vivo; settings: in Solanum lycopersicum, foliar, 96 h, read-out: control of fungal infection, Phytophthora infestans
[1] = test system: Erysiphe graminis f.sp. tritici; experiment: Erysiphe graminis f.sp. tritici (wheat powdery mildew), wheat leaf segment assay, preventive; format: in vivo; settings: Blumeria graminis, foliar, 96 h; 200 ppm; wheat leaf segments; assessed four days after inoculation; read-out: control of fungal infection, Etysiphe graminis f.sp. tritici
Pythium ultimum = Pythium ultimum (Damping off), liquid culture growth inhibition in potato dextrose broth; format: cell-based; settings: Globisporangium ultimum; 20 ppm; potato dextrose broth, 24° C.; inhibition of growth determined photometrically after 48 hours; read-out: control of fungal infection, Pythium ultimum
Septoria tritici = Septoria tritici (leaf blotch), liquid culture growth inhibition in nutrient broth; format: cell-based; settings: Zymoseptoria tritici; 200 ppm; PDB broth, 24 C; inhibition of growth determined photometrically after 72 hrs; read-out: control of fungal infection, Septoria tritici
Fusarium culmorum = Fusarium culmorum (root rot), liquid culture growth inhibition in nutrient broth; format: cell-based; settings: PDB broth, 24 C, inhibition of growth determined photometrically after 48 hrs, read-out: control of fungal infection, Fusarium culmorum
Description: Mycelia fragments or conidia suspensions of a fungus, prepared either freshly from liquid cultures of the fungus or from cryogenic storage, are directly mixed into nutrient broth. DMSO solutions of the test compound (max. 10 mg/ml) is diluted with 0.025% Tween20 by factor 50 and 10 μl of this solution is pipetted into a microtiter plate (96-well format) and the nutrient broth containing the fungal spores/mycelia fragments is then added to give an end concentration of the tested compound. The test plates are incubated at 24° C. and 96% rH in the dark. The inhibition of fungal growth is determined photometrically after 2-6 days and antifungal activity is calculated.
Fusarium culmorum (root rot): Conidia of the fungus from cryogenic storage were directly mixed into nutrient broth (PDB potato dextrose broth). After placing a (DMSO) solution of the test compounds into a microtiter plate (96-well format) the nutrient broth containing the fungal spores was added. The test plates were incubated at 24 C and the inhibition of growth was determined photometrically after 48 hrs.

[2] = test system: Puccinia recondita f.sp. tritici; experiment: Puccinia recondita f.sp. tritici (wheat brown rust), wheat leaf segment assay, preventive; format: in vivo; settings: foliar, 216 h, 200 ppm, wheat leaf segments, assessed nine days after inoculation, read-out: control of fungal infection, Puccinia recondite f.sp. tritici

CON=CC(C)(C)NC(=O)C(OC)Oc1cc(C)c2ncc(C#C[Si](C)(C)C)cc2c1 (stereo not drawn) [Compound No. 75, 2-Methoxy-N-(2-methoxyimino-1,1-dimethyl-ethyl)-2-(8-methyl-3-trimethylsilanylethynyl-quinolin-6-yloxy)-acetamide]
≥ 60%: pest or weed control at 200 ppm (Septoria nodorum) | pest or weed control at 200 ppm (Botrytis cinerea) | pest or weed control at 200 ppm (Plasmopara viticola) | pest or weed control at 200 ppm (Phytophthora infestans) | pest or weed control at 200 ppm [1]

C=CCON=CC(C)(C)NC(=O)C(Oc1ccc2ncc(Br)cc2c1)SC (stereo not drawn) [Compound No. 13, N-(2-Allyloxyimino-1,1-dimethyl-ethyl)-2-(3-bromo-quinolin-6-yloxy)-2-methylsulfanyl-acetamide]
≥ 60%: inhibition of growth at 20 ppm (Pythium ultimum) | pest or weed control at 200 ppm (Botrytis cinerea) | pest or weed control at 200 ppm (Plasmopara viticola) | pest or weed control at 200 ppm (Phytophthora infestans) | inhibition of growth at 200 ppm (Septoria tritici) | pest or weed control at 200 ppm [1]

CSC(Oc1ccc2ncc(Br)cc2c1)C(=O)NC(C)(C)C=NOCCF (stereo not drawn) [Compound No. 142, 2-(3-Bromo-quinolin-6-yloxy)-N-[2-(2-fluoro-ethoxyimino)-1,1-dimethyl-ethyl]-2-methylsulfanyl-acetamide]
≥ 60%: inhibition of growth at 20 ppm (Pythium ultimum) | pest or weed control at 200 ppm (Plasmopara viticola) | inhibition of growth at 200 ppm (Fusarium culmorum) | pest or weed control at 200 ppm (Phytophthora infestans) | inhibition of growth at 200 ppm (Septoria tritici) | pest or weed control at 200 ppm [1] | pest or weed control at 200 ppm [2]

CCC(Oc1ccc2ncc(I)cc2c1)C(=O)NC(C)(C)C=NOCCF (stereo not drawn) [Compound No. 155, N-[2-(2-Fluoro-ethoxyimino)-1,1-dimethyl-ethyl]-2-(3-iodo-quinolin-6-yloxy)-butyramide]
≥ 60%: pest or weed control at 200 ppm (Septoria nodorum) | pest or weed control at 200 ppm (Plasmopara viticola) | inhibition of growth at 200 ppm (Fusarium culmorum) | pest or weed control at 200 ppm (Phytophthora infestans) | inhibition of growth at 200 ppm (Septoria tritici) | pest or weed control at 200 ppm [1] | pest or weed control at 200 ppm [2]

CCC(Oc1ccc2ncc(I)cc2c1)C(=O)NC(C)(C=NOC)COC (stereo not drawn) [Compound No. 68, 2-(3-Iodo-quinolin-6-yloxy)-N-(2-methoxyimino-1-methoxymethyl-1-methyl-ethyl]-butyramide]
≥ 60%: pest or weed control at 200 ppm (Septoria nodorum) | pest or weed control at 200 ppm (Botrytis cinerea) | pest or weed control at 200 ppm (Plasmopara viticola) | pest or weed control at 200 ppm (Phytophthora infestans) | inhibition of growth at 200 ppm (Septoria tritici) | pest or weed control at 200 ppm [1]

CON=CC(C)(C)NC(=O)C(Oc1cc(C)c2scnc2c1)SC (stereo not drawn) [Compound No. 87, N-(2-methoxyimino-1,1-dimethyl-ethyl)-2-(7-methyl-benzothiazol-5-yloxy)-2-methylsulfanyl-acetamide]
≥ 60%: inhibition of growth at 20 ppm (Pythium ultimum) | pest or weed control at 200 ppm (Botrytis cinerea)

CON=CC(C)(C)NC(=O)C(Oc1cc(C)c2ncsc2c1)SC (stereo not drawn) [Compound No. 89, N-(2-Methoxyimino-1,1-dimethyl-ethyl)-2-(4-methyl-benzothiazol-6-yloxy)-2-methylsulfanyl-acetamide]
≥ 60%: pest or weed control at 200 ppm (Botrytis cinerea) | pest or weed control at 200 ppm (Plasmopara viticola) | pest or weed control at 200 ppm (Phytophthora infestans) | inhibition of growth at 200 ppm (Septoria tritici) | pest or weed control at 200 ppm [1]

C#Cc1cnc2c(C)cc(OC(CC)C(=O)NC(C)(C)C=NOCC=C)cc2c1 (stereo not drawn) [Compound No. 138, N-(2-Allyloxyimino-1,1-dimethyl-ethyl)-2-(3-ethynyl-8-methyl-quinolin-6-yloxy)-butyramide]
≥ 60%: inhibition of growth at 20 ppm (Pythium ultimum) | pest or weed control at 200 ppm (Septoria nodorum) | pest or weed control at 200 ppm (Plasmopara viticola) | pest or weed control at 200 ppm (Phytophthora infestans) | inhibition of growth at 200 ppm (Septoria tritici) | pest or weed control at 200 ppm [1] | pest or weed control at 200 ppm [2]

CCC(Oc1cc(C)c2ncc(I)cc2c1)C(=O)NC(C)(C)C=NOC (stereo not drawn) [Compound No. 5, 2-(3-Iodo-8-methyl-quinolin-6-yloxy)-N-(2-methoxyimino-1,1-dimethyl-ethyl)-butyramide]
≥ 60%: pest or weed control at 200 ppm (Septoria nodorum) | pest or weed control at 200 ppm (Plasmopara viticola) | pest or weed control at 200 ppm (Phytophthora infestans) | inhibition of growth at 200 ppm (Septoria tritici) | pest or weed control at 200 ppm [1] | pest or weed control at 200 ppm [2]

CCC(Oc1cc(C)c2ncc(Br)cc2c1)C(=O)NC(C)(C)C=NOC (stereo not drawn) [Compound No. 145, 2-(3-Bromo-8-methyl-quinolin-6-yloxy)-N-(2-methoxyimino-1,1-dimethyl-ethyl)-butyramide]
≥ 60%: pest or weed control at 200 ppm (Septoria nodorum) | pest or weed control at 200 ppm (Botrytis cinerea) | pest or weed control at 200 ppm (Plasmopara viticola) | pest or weed control at 200 ppm (Phytophthora infestans) | inhibition of growth at 200 ppm (Septoria tritici) | pest or weed control at 200 ppm [1]

CCC(Oc1ccc2ncc(Br)cc2c1)C(=O)NC(C)(C)C=NOC (stereo not drawn) [Compound No. 144, 2-(3-Bromo-quinolin-6-yloxy)-N-(2-methoxyimino-1,1-dimethyl-ethyl)-butyramide]
≥ 60%: pest or weed control at 200 ppm (Plasmopara viticola) | inhibition of growth at 200 ppm (Fusarium culmorum) | pest or weed control at 200 ppm (Phytophthora infestans) | inhibition of growth at 200 ppm (Septoria tritici) | pest or weed control at 200 ppm [1] | pest or weed control at 200 ppm [2]

CSC(Oc1cc(C)c2ncc(I)cc2c1)C(=O)NC(C)(C)CC=NOC1CCCCO1 (stereo not drawn) [Compound No. 96, N-[1,1-Dimethyl-3-(tetrahydro-pyran-2-yloxyimino)-propyl]-2-(3-iodo-8-methyl-quinolin-6-yloxy)-2-methylsulfanyl-acetamide]
≥ 60%: inhibition of growth at 20 ppm (Pythium ultimum) | pest or weed control at 200 ppm (Botrytis cinerea) | pest or weed control at 200 ppm (Plasmopara viticola) | inhibition of growth at 200 ppm (Septoria tritici)

CC#CCON=CC(C)(C)NC(=O)C(Oc1ccc2ncc(Br)cc2c1)SC (stereo not drawn) [Compound No. 141, 2-(3-Bromo-quinolin-6-yloxy)-N-(2-but-2-ynyloxyimino-1,1-dimethyl-ethyl)-2-methylsulfanyl-acetamide]
≥ 60%: inhibition of growth at 20 ppm (Pythium ultimum) | pest or weed control at 200 ppm (Plasmopara viticola) | inhibition of growth at 200 ppm (Fusarium culmorum) | pest or weed control at 200 ppm (Phytophthora infestans) | inhibition of growth at 200 ppm (Septoria tritici) | pest or weed control at 200 ppm [1] | pest or weed control at 200 ppm [2]

CON=CCNC(=O)C(Oc1ccc2ncc(Br)cc2c1)SC (stereo not drawn) [Compound No. 93, 2-(3-Bromo-quinolin-6-yloxy)-N-(2-methoxyimino-ethyl)-2-methylsulfanyl-acetamide]
≥ 60%: pest or weed control at 200 ppm (Septoria nodorum) | pest or weed control at 200 ppm (Plasmopara viticola) | inhibition of growth at 200 ppm (Fusarium culmorum) | pest or weed control at 200 ppm (Phytophthora infestans) | inhibition of growth at 200 ppm (Septoria tritici) | pest or weed control at 200 ppm [1] | pest or weed control at 200 ppm [2]

CON=CC(C)(C)NC(=O)C(OC)Oc1ccc2ncc(C#C[Si](C)(C)C)cc2c1 (stereo not drawn) [Compound No. 74, 2-Methoxy-N-(2-methoxyimino-1,1-dimethyl-ethyl)-2-(3-trimethylsilanylethynyl-quinolin-6-yloxy)-acetamide]
≥ 60%: inhibition of growth at 20 ppm (Pythium ultimum) | pest or weed control at 200 ppm (Botrytis cinerea) | pest or weed control at 200 ppm (Plasmopara viticola) | pest or weed control at 200 ppm (Phytophthora infestans) | inhibition of growth at 200 ppm (Septoria tritici) | pest or weed control at 200 ppm [1]

CO/N=C(\C)C(C)(C)NC(=O)C(Oc1cc(C)c2ncc(Br)cc2c1)SC (stereo not drawn) [Compound No. 32, 2-(3-Bromo-8-methyl-quinolin-6-yloxy)-N-{2-[(E)-methoxyimino]-1,1-dimethyl-propyl}-2-methylsulfanyl-acetamide]
≥ 60%: inhibition of growth at 20 ppm (Pythium ultimum) | pest or weed control at 200 ppm (Plasmopara viticola) | inhibition of growth at 200 ppm (Fusarium culmorum) | pest or weed control at 200 ppm (Phytophthora infestans) | pest or weed control at 200 ppm [1] | pest or weed control at 200 ppm [2]
